From PubChem BioAssay (NCI)
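Each compound was tested at five concentrations against cells in 96-well plates for 48 hours. The concentration for 50% growth inhibition is given as GI50. The concentration for full growth arrest is given as TGI.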

Tests used:
Test in all cases: DTP human tumour cell line panel, 48 h
[1] = tested on: HS 578T breast
[2] = tested on: A498 renal
[3] = tested on: A549 NSCLC
[4] = tested on: 786-0 renal
[5] = tested on: HCT-116 colon
[6] = tested on: BT-549 breast
[7] = tested on: NCI-H522 lung
[8] = tested on: UACC-257 melanoma
[9] = tested on: OVCAR-8 ovarian
[10] = tested on: UO-31 renal
[11] = tested on: SNB-19 CNS
[12] = tested on: SK-OV-3 ovarian
[13] = tested on: SN12C renal
[14] = tested on: TK-10 renal
[15] = tested on: M14 melanoma
[16] = tested on: OVCAR-5 ovarian
[17] = tested on: MALME-3M melanoma
[18] = tested on: MDA-MB-231 breast
[19] = tested on: SF-268 CNS
[20] = tested on: HCC-2998 colon
[21] = tested on: ACHN renal
[22] = tested on: NCI-H460 lung
[23] = tested on: IGROV1 ovarian
[24] = tested on: HT29 colon
[25] = tested on: NCI/ADR-RES ovarian
[26] = tested on: CAKI-1 renal
[27] = tested on: COLO 205 colon
[28] = tested on: SR leukemia
[29] = tested on: EKVX NSCLC
[30] = tested on: SK-MEL-28 melanoma
[31] = tested on: HCT-15 colon
[32] = tested on: DU-145 prostate
[33] = tested on: PC-3 prostate
[34] = tested on: U251 CNS
[35] = tested on: HOP-92 NSCLC
[36] = tested on: K-562 leukemia
[37] = tested on: T-47D breast
[38] = tested on: OVCAR-4 ovarian
[39] = tested on: HL-60(TB) leukemia
[40] = tested on: SK-MEL-5 melanoma
[41] = tested on: NCI-H226 lung
[42] = tested on: SF-295 CNS
[43] = tested on: SK-MEL-2 melanoma
[44] = tested on: UACC-62 melanoma
[45] = tested on: CCRF-CEM leukemia
[46] = tested on: RPMI-8226 leukemia
[47] = tested on: HOP-62 NSCLC
[48] = tested on: RXF 393 renal
[49] = tested on: NCI-H23 lung
[50] = tested on: KM12 colon
[51] = tested on: MCF7 breast
[52] = tested on: SF-539 CNS
[53] = tested on: SW-620 colon
[54] = tested on: SNB-75 CNS
[55] = tested on: MOLT-4 leukemia

SMILES: O=C(Nc1ccc(F)cc1)c1cc(-c2ccc(F)cc2F)ccc1O
- GI50 [1]: 2.79 µM
- TGI [1]: 9.62 µM
- GI50 [2]: 1.47 µM
- TGI [2]: 4.13 µM
- GI50 [3]: 3.25 µM
- TGI [3]: > 100 µM
- GI50 [4]: 3.31 µM
- TGI [4]: 16.7 µM
- GI50 [5]: 2.81 µM
- TGI [5]: 12.6 µM
- GI50 [6]: 2.78 µM
- TGI [6]: 18.6 µM
- GI50 [7]: 1.83 µM
- TGI [7]: 8.3 µM
- GI50 [8]: 1.61 µM
- TGI [8]: 6.97 µM
- GI50 [9]: 3.2 µM
- TGI [9]: > 100 µM
- GI50 [10]: 2.11 µM
- TGI [10]: 8.67 µM
- GI50 [11]: 3.36 µM
- TGI [11]: 31.9 µM
- GI50 [12]: 2.65 µM
- TGI [12]: 8.99 µM
- GI50 [13]: 2.36 µM
- TGI [13]: 8.3 µM
- GI50 [14]: 2.91 µM
- TGI [14]: 23.2 µM
- GI50 [15]: 3.32 µM
- TGI [15]: > 100 µM
- GI50 [16]: 3.37 µM
- TGI [16]: 37.8 µM
- GI50 [17]: 1.92 µM
- TGI [17]: 5.64 µM
- GI50 [18]: 2.38 µM
- TGI [18]: 6.47 µM
- GI50 [19]: 2.67 µM
- TGI [19]: > 100 µM
- GI50 [20]: 3.12 µM
- TGI [20]: 42.8 µM
- GI50 [21]: 2.77 µM
- TGI [21]: 8.51 µM
- GI50 [22]: 2.98 µM
- TGI [22]: 12.8 µM
- GI50 [23]: 3.45 µM
- TGI [23]: > 100 µM
- GI50 [24]: 12.7 µM
- TGI [24]: > 100 µM
- GI50 [25]: 2.49 µM
- TGI [25]: 8.51 µM
- GI50 [26]: 1.95 µM
- TGI [26]: 6 µM
- GI50 [27]: 17.1 µM
- TGI [27]: 50.1 µM
- GI50 [28]: 2.93 µM
- TGI [28]: 80.3 µM
- GI50 [29]: 2.61 µM
- TGI [29]: 9.17 µM
- GI50 [30]: 2.9 µM
- TGI [30]: > 100 µM
- GI50 [31]: 2.89 µM
- TGI [31]: 13 µM
- GI50 [32]: 3.33 µM
- TGI [32]: > 100 µM
- GI50 [33]: 2.78 µM
- TGI [33]: 19.8 µM
- GI50 [34]: 3.23 µM
- TGI [34]: 24.6 µM
- GI50 [35]: 1.47 µM
- TGI [35]: 5.24 µM
- GI50 [36]: 2.81 µM
- TGI [36]: > 100 µM
- GI50 [37]: 1.75 µM
- TGI [37]: 8.14 µM
- GI50 [38]: 2.74 µM
- TGI [38]: 45.5 µM
- GI50 [39]: 1.93 µM
- TGI [39]: 5.04 µM
- GI50 [40]: 1.56 µM
- TGI [40]: 3.63 µM
- GI50 [41]: 2.88 µM
- TGI [41]: 9.82 µM
- GI50 [42]: 2.44 µM
- TGI [42]: 7.55 µM
- GI50 [43]: 1.86 µM
- TGI [43]: 5.57 µM
- GI50 [44]: 1.39 µM
- TGI [44]: 4.61 µM
- GI50 [45]: 3.29 µM
- TGI [45]: > 100 µM
- GI50 [46]: 1.74 µM
- TGI [46]: 6.38 µM
- GI50 [47]: 3.13 µM
- TGI [47]: 17.1 µM
- GI50 [48]: 2.75 µM
- TGI [48]: 8.04 µM
- GI50 [49]: 2.47 µM
- TGI [49]: 7.78 µM
- GI50 [50]: 3.03 µM
- TGI [50]: 9.93 µM
- GI50 [51]: 2.31 µM
- TGI [51]: 10.1 µM
- GI50 [52]: 3.65 µM
- TGI [52]: 18.5 µM
- GI50 [53]: 3.4 µM
- TGI [53]: > 100 µM
- GI50 [54]: 1.84 µM
- TGI [54]: 5.55 µM
- GI50 [55]: 2.57 µM
- TGI [55]: 7.9 µM
